Test results taken from ChEMBL document CHEMBL1201862, “PubChem BioAssay data set” (2004).
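Cells were grown in 96-well plates and exposed to each compound for 48 hours at five concentrations; endpoints were interpolated linearly between bracketing concentrations, or set to the highest concentration if not reached. The concentration for 50% growth inhibition is given as GI50.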 Active and inactive are the calls of the source. No stated cut-off is given here; in the data, active = GI50 up to about 1.1 µM and inactive = higher.

Experiments:
Assay in all cases: NCI tumour cell line growth inhibition, 48 h
[1] = tested on: T47D
[2] = tested on: SW-620
[3] = tested on: OVCAR-8
[4] = tested on: SF-539
[5] = tested on: SNB-75
[6] = tested on: OVCAR-5
[7] = tested on: SK-MEL-2
[8] = tested on: HOP-92
[9] = tested on: CCRF-CEM
[10] = tested on: SNB-19
[11] = tested on: HCT-15
[12] = tested on: M14
[13] = tested on: UACC-62
[14] = tested on: EKVX
[15] = tested on: MDA-MB-435
[16] = tested on: HT-29
[17] = tested on: UO-31
[18] = tested on: DU-145
[19] = tested on: NCI-H522
[20] = tested on: RPMI-8226
[21] = tested on: NCI-H226
[22] = tested on: SR
[23] = tested on: TK-10
[24] = tested on: HOP-62
[25] = tested on: BT-549
[26] = tested on: NCI-H460
[27] = tested on: HCC 2998
[28] = tested on: A498
[29] = tested on: LOX IMVI
[30] = tested on: SK-OV-3
[31] = tested on: Malme-3M
[32] = tested on: SF-295
[33] = tested on: NCI-H23
[34] = tested on: SK-MEL-5
[35] = tested on: SF-268
[36] = tested on: RXF 393
[37] = tested on: COLO 205
[38] = tested on: U-251
[39] = tested on: IGROV-1
[40] = tested on: KM12
[41] = tested on: MDA-N
[42] = tested on: MCF7
[43] = tested on: UACC-257
[44] = tested on: Hs-578T
[45] = tested on: NCI/ADR-RES
[46] = tested on: OVCAR-4
[47] = tested on: MDA-MB-231
[48] = tested on: 786-0
[49] = tested on: CAKI-1
[50] = tested on: ACHN
[51] = tested on: PC-3
[52] = tested on: MOLT-4
[53] = tested on: K562
[54] = tested on: SN12C
[55] = tested on: OVCAR-3
[56] = tested on: HCT-116
[57] = tested on: SK-MEL-28
[58] = tested on: A549

Compound: CC(C)(N)CO[C@H]1C[C@H]2CC[C@@]1(C)C2(C)C
- GI50 [1]: 16 µM (inactive)
- GI50 [2]: 23.7 µM (inactive)
- GI50 [3]: 20.6 µM (inactive)
- GI50 [4]: 22.4 µM (inactive)
- GI50 [5]: 14.2 µM (inactive)
- GI50 [6]: 18.5 µM (inactive)
- GI50 [7]: 18.5 µM (inactive)
- GI50 [8]: 14.2 µM (inactive)
- GI50 [9]: 25.2 µM (inactive)
- GI50 [10]: 24.8 µM (inactive)
- GI50 [11]: 19.8 µM
- GI50 [12]: 16 µM (inactive)
- GI50 [13]: 18.2 µM (inactive)
- GI50 [14]: 28.3 µM (inactive)
- GI50 [15]: 16.3 µM (inactive)
- GI50 [16]: 12.4 µM (inactive)
- GI50 [17]: 16.5 µM (inactive)
- GI50 [18]: 25.9 µM (inactive)
- GI50 [19]: 18.7 µM (inactive)
- GI50 [20]: 15.7 µM (inactive)
- GI50 [21]: 24.7 µM (inactive)
- GI50 [22]: 11.9 µM (inactive)
- GI50 [23]: 20 µM (inactive)
- GI50 [24]: 20 µM (inactive)
- GI50 [25]: 23.1 µM (inactive)
- GI50 [26]: 17.9 µM (inactive)
- GI50 [27]: 2.11 µM (inactive)
- GI50 [28]: 27.2 µM (inactive)
- GI50 [29]: 17.2 µM (inactive)
- GI50 [30]: 27.8 µM (inactive)
- GI50 [31]: 18.2 µM (inactive)
- GI50 [32]: 19.9 µM (inactive)
- GI50 [33]: 23.7 µM (inactive)
- GI50 [34]: 18.2 µM (inactive)
- GI50 [35]: 44.9 µM (inactive)
- GI50 [36]: 12.9 µM (inactive)
- GI50 [37]: 16.1 µM (inactive)
- GI50 [38]: 18.1 µM (inactive)
- GI50 [39]: 39.2 µM (inactive)
- GI50 [40]: 18.1 µM (inactive)
- GI50 [41]: 15.5 µM (inactive)
- GI50 [42]: 19.4 µM (inactive)
- GI50 [43]: 17.8 µM (inactive)
- GI50 [44]: 27.5 µM (inactive)
- GI50 [45]: 32.4 µM (inactive)
- GI50 [46]: 23.1 µM (inactive)
- GI50 [47]: 17.8 µM (inactive)
- GI50 [48]: 16.2 µM (inactive)
- GI50 [49]: 20.2 µM (inactive)
- GI50 [50]: 34.9 µM (inactive)
- GI50 [51]: 27.1 µM (inactive)
- GI50 [52]: 26.3 µM (inactive)
- GI50 [53]: 18.2 µM (inactive)
- GI50 [54]: 39.9 µM (inactive)
- GI50 [55]: 49.8 µM (inactive)
- GI50 [56]: 15.9 µM (inactive)
- GI50 [57]: 12.3 µM (inactive)
- GI50 [58]: 38.5 µM (inactive)
